Test results: US20090227025A1, “Ex vivo human lung/immune system model using tissue engineering for studying microbial pathogens with lung tropism” (priority 2003, published 2009)
Values joined by “and” are separate entries in the source; they are usually repeats but may differ in a detail not shown here. Identical values can stand only once.

Columns and labels:
[1] = test system: influenza A virus; format: cell-based
[2] = test system: influenza A virus A/Marton/43 (H1N1); format: cell-based

`CC(=O)N[C@H]1[C@H]([C@H](O)[C@H](O)CO)OC(C(=O)O)=C[C@@H]1NC(=N)N` [Neuraminidase inhibitor, 4-guanidino-2,4-dideoxy-2,3-dehydro-N-acetylneuraminic acid] was tested, and the “virus localisation in treated TE cultures (staining, FIGS. 12A-F)” value [1] was “accumulation of clumped virus” and the average virus titer [2] was 4.93 × 10^5 and 2.7 × 10^5.
